Experimental data taken from patent US8501722B2, “Methods and compositions for treating bacterial infection” (priority 2009, dated 2013).
Where “and” joins values, the source holds several entries; their conditions need not be identical. Identical values can stand only once. Like-named read-outs stand apart in the source and are kept apart here.

Key:
[1] = system: streptokinase (SK)
Description: SK− Ecoli and SKCtr1's dose response relationship with these compounds were then examined.
The effects of 10 hit compounds out of the 23 identified were further tested by dose response assays. […] These compounds were tested for inhibition of ska expression by measuring SK activity in supernatants of GAS exposed to the test compound or control vehicle alone (DMSO). SK(+)GAS were cultured with hit compounds at a dose range of 10 nM to 100 μM at 37° C. for 16-20 hours. Supernatants of SK(+)GAS cultures were measured for SK activity using chromogenic substrate 2403 (Diapharma group Inc., West Chester, Ohio), according to the manufacturer's instruction and simultaneously monitored for nonspecific effects on GAS growth by measuring OD600 nm.
The positive compounds identified in dose response assays are subjected to SK assay to identify compounds inhibiting SK expression in SK(+)GAS. Briefly, SK(+)GAS is grown at the presence of hit compounds at a dose range determined by dose response assays within which SK(−) GAS growth is inhibited less than 10% while SKKanGAS growth is inhibited more than 50% under 20 μg/ml kanamycin.

[2] = system: SK(+)GAS; assay: GAS growth by OD600 nm of culture; assay type: cell-based, Group A Streptococcus; settings: for activity at 5 µg/mL / activity at 10 µg/mL / activity at 20 µg/mL / activity at 40 µg/mL / activity at 2.5 µg/mL / activity at 30 µg/mL / activity at 50 µg/mL / activity at 60 µg/mL / activity at 70 µg/mL / activity at 0.1 µg/mL / activity at 0.3 µg/mL: Streptococcus; for activity at 5 µg/mL: read-out: GAS Growth (% control), compound conc. 5 μg/ml; for activity at 10 µg/mL: read-out: GAS Growth (% control), compound conc. 10 μg/ml; for activity at 20 µg/mL: read-out: GAS Growth (% control), compound conc. 20 μg/ml; for activity at 40 µg/mL: read-out: GAS Growth (% control), compound conc. 40 μg/ml; for activity at 2.5 µg/mL: read-out: GAS Growth (% control), compound conc. 2.5 μg/ml; for activity at 30 µg/mL: read-out: GAS Growth (% control), compound conc. 30 μg/ml; for activity at 50 µg/mL: read-out: GAS Growth (% control), compound conc. 50 μg/ml; for activity at 60 µg/mL: read-out: GAS Growth (% control), compound conc. 60 μg/ml; for activity at 70 µg/mL: read-out: GAS Growth (% control), compound conc. 70 μg/ml; for activity at 0.1 µg/mL: read-out: GAS Growth (% control), compound conc. 0.1 μg/ml; for activity at 0.3 µg/mL: read-out: GAS Growth (% control), compound conc. 0.3 μg/ml

SMILES	SK Expression (% control) ([1]; compound conc. 5 μg/ml)	SK Expression (% control) ([1]; compound conc. 10 μg/ml)	SK Expression (% control) ([1]; compound conc. 20 μg/ml)	SK Expression (% control) ([1]; compound conc. 40 μg/ml)	activity at 5 µg/mL [2] [%]	activity at 10 µg/mL [2] [%]	activity at 20 µg/mL [2] [%]	activity at 40 µg/mL [2] [%]	SK Expression (% control) ([1]; compound conc. 30 μg/ml)	SK Expression (% control) ([1]; compound conc. 60 μg/ml)	activity at 2.5 µg/mL [2] [%]	activity at 70 µg/mL [2] [%]	SK Expression (% control) ([1]; compound conc. 0.1 μg/ml)	SK Expression (% control) ([1]; compound conc. 0.3 μg/ml)	SK Expression (% control) ([1]; compound conc. 1.0 μg/ml)	SK Expression (% control) ([1]; compound conc. 3 μg/ml)	activity at 0.1 µg/mL [2] [%]	activity at 0.3 µg/mL [2] [%]	also measured
C=CCn1c(OCC)nc2c(c1=O)C1(CCCCC1)Cc1ccccc1-2 [CCG-102622, 3-Allyl-2-ethoxy-3H-spiro[benzo[h]quinazoline-5,1′-cyclohexan]-4(6H)-one]	43	41 % control	38	23	99	100	103	113											
C=CCn1c(SCc2cccc(OC)c2)nc2c(c1=O)C1(CCCCC1)Cc1ccccc1-2 [CCG-102485, 3-allyl-2-(3-methoxybenzylthio)-3H-spiro[benzo[h]quinazoline-5,1′-cyclohexan]-4(6H)-one]	81			91	102			104											
C=CCn1c(SCc2ccc(NC(C)=O)cc2)nc2c(c1=O)C1(CCCCC1)Cc1ccccc1-2 [CCG-102491, N-(4-((3-allyl-4-oxo-4,6-dihydro-3H-spiro[benzo[h]quinazoline-5,1′-cyclohexane]-2-ylthio)methyl)phenyl)acetamide]	85			96	109			112											
C=CCn1c(SCc2ccccc2)nc2c(c1=O)C(C)(C)Cc1ccccc1-2 [compound 25203]		96 % control	84	63		92	100	118	70	52	89	143							SK Expression (% control) ([1]; compound conc. 2.5 μg/ml): 110 % control; SK Expression (% control) ([1]; compound conc. 50 μg/ml): 58 % control; SK Expression (% control) ([1]; compound conc. 70 μg/ml): 60 % control; activity at 30 µg/mL [2]: 110%; activity at 50 µg/mL [2]: 125%; activity at 60 µg/mL [2]: 132%
C=CCn1c(SCCOC)nc2c(c1=O)CC(C)c1ccccc1-2 (stereo not drawn) [CCG-203574, 3-allyl-2-(2-methoxyethylthio)-6-methyl-5,6-dihydrobenzo[h]quinazolin-4(3H)-one]	80	10 % control	6	6	102	95	85	68											
C=CCn1c(SCC(N)=O)nc2c(c1=O)C(C)(C)Cc1ccccc1-2 [CCG-203037, 2-(3-Allyl-5,5-dimethyl-4-oxo-3,4,5,6-tetrahydrobenzo[h]quinazolin-2-ylthio)acetamide]		92 % control			102		105	102	79	38	101	106	96 % control	97 % control	96 % control	94 % control	98	99	
C=CCn1c(SCCc2ccc(OC)cc2)nc2c(c1=O)C1(CCCCC1)Cc1ccccc1-2 [CCG-102489, 3-allyl-2-(4-methoxyphenethylthio)-3H-spiro[benzo[h]quinazoline-5,1′-cyclohexan]-4(6H)-one]	91			79	106			114											
C=CCn1c(SCCO)nc2c(c1=O)C(C)(C)Cc1ccccc1-2 [CCG-203041, 3-Allyl-2-(2-hydroxyethylthio)-5,5-dimethyl-5,6-dihydrobenzo[h]quinazolin-4(3H)-one]		57 % control			106		107	60	28	12	104	50	93 % control	90 % control	90 % control	87 % control	100	102	
C=CCn1c(SCC)nc2c(c1=O)C(C)(C)Cc1ccccc1-2 [1S-26137]	21	20 % control	22	19	89	89	91	98											activity at 30 µg/mL [2]: 105%
CCn1c(SCc2ccccc2)nc2c(c1=O)C1(CCCC1)Cc1ccccc1-2 [AK968]		83 % control	64	54		96	105	117	57	33		130							SK Expression (% control) ([1]; compound conc. 50 μg/ml): 40 % control; SK Expression (% control) ([1]; compound conc. 70 μg/ml): 45 % control; activity at 30 µg/mL [2]: 112%; activity at 50 µg/mL [2]: 124%; activity at 60 µg/mL [2]: 123%
C=CCn1c(SCCOC)nc2c(c1=O)C(C)(C)Cc1ccccc1-2 [CCG-102624, 3-Allyl-2-(2-methoxyethylthio)-5,5-dimethyl-5,6-dihydrobenzo[h]quinazolin-4(3H)-one]	30	33 % control and 29 % control	30	23	93	94	93	87	26	28	101	113	90 % control	97 % control	79 % control	35 % control	100	98	
C=CCn1c(SCCOC)nc2c(c1=O)C(C)(C)c1ccccc1-2 [CCG-203572, 3-allyl-2-(2-methoxyethylthio)-5,5-dimethyl-3H-indeno[1,2-d]pyrimidin-4(5H)-one]	21		10	9	97	97	96	87			101	96	100 % control and 128 % control	101 % control and 129 % control	102 % control and 134 % control	102 % control and 75 % control	101	101	GAS Growth (% control) ([2]; compound conc. 0.3 μg/ml): 101 % control
